Measurements published in PubChem BioAssay AID2060895 (Molecular Pharmacology Branch, DTP, NCI, 2025).

Tested on: PDC 899932-113-R3-J6 complex spheroid viability
Test: Anticancer human tumor 899932-113-R3-J6-PDC patient-derived melanoma cell line growth inhibition [RAS]
Settings: for IC50: curve of first compound; for viability, T/C: stronger effect = lower value
Method in brief: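 Tumour cells grown as complex spheroids with HUVEC endothelial cells and mesenchymal stem cells, treated with RAS pathway inhibitor combinations. Each agent spans half-log steps from near clinical Cmax, or 10 microM where Cmax is unknown.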
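Throughout, for viability, T/C: spheroids exposed to agents for seven days before readout; 100% = DMSO vehicle control wells.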

CC(=O)OC12COC1CC(O)C1(C)C(=O)C(O)C3=C(C)C(OC(=O)C(O)C(NC(=O)OC(C)(C)C)c4ccccc4)CC(O)(C(OC(=O)c4ccccc4)C21)C3(C)C (configuration not stated) + CCn1c(-c2cc(N3CCN(C)CC3)cnc2C(C)OC)c2c3cc(ccc31)-c1csc(n1)CC(NC(=O)C1CC1C)C(=O)N1CCCC(N1)C(=O)OCC(C)(C)C2
IC50 (second compound 0.000949 µM): < 31.6 nM | IC50 (second compound 0.003 µM): < 31.6 nM | IC50 (second compound 0.00949 µM): < 31.6 nM | IC50 (second compound 0.03 µM): < 31.6 nM | IC50 (second compound 0.0949 µM): < 31.6 nM | IC50 (second compound 0.3 µM): < 31.6 nM | viability, T/C (second compound 0.000949 µM, first compound 0.0316 µM): 18.6% | viability, T/C (second compound 0.000949 µM, first compound 0.1 µM): 18.4% | viability, T/C (second compound 0.000949 µM, first compound 0.316 µM): 26.5% | viability, T/C (second compound 0.000949 µM, first compound 1 µM): 36.3% | viability, T/C (second compound 0.000949 µM, first compound 3.16 µM): 45.5% | viability, T/C (second compound 0.000949 µM, first compound 10 µM): 47.2% | viability, T/C (second compound 0.003 µM, first compound 0.0316 µM): 8.34% | viability, T/C (second compound 0.003 µM, first compound 0.1 µM): 10.3% | viability, T/C (second compound 0.003 µM, first compound 0.316 µM): 12.4% | viability, T/C (second compound 0.003 µM, first compound 1 µM): 14.1% | viability, T/C (second compound 0.003 µM, first compound 3.16 µM): 18.3% | viability, T/C (second compound 0.003 µM, first compound 10 µM): 21.1% | viability, T/C (second compound 0.00949 µM, first compound 0.0316 µM): 3.98% | viability, T/C (second compound 0.00949 µM, first compound 0.1 µM): 3.52% | viability, T/C (second compound 0.00949 µM, first compound 0.316 µM): 3.63% | viability, T/C (second compound 0.00949 µM, first compound 1 µM): 3.09% | viability, T/C (second compound 0.00949 µM, first compound 3.16 µM): 3.96% | viability, T/C (second compound 0.00949 µM, first compound 10 µM): 4.11% | viability, T/C (second compound 0.03 µM, first compound 0.0316 µM): 2.05% | viability, T/C (second compound 0.03 µM, first compound 0.1 µM): 1.55% | viability, T/C (second compound 0.03 µM, first compound 0.316 µM): 1.79% | viability, T/C (second compound 0.03 µM, first compound 1 µM): 1.78% | viability, T/C (second compound 0.03 µM, first compound 3.16 µM): 1.72% | viability, T/C (second compound 0.03 µM, first compound 10 µM): 1.3% | viability, T/C (second compound 0.0949 µM, first compound 0.0316 µM): 1.14% | viability, T/C (second compound 0.0949 µM, first compound 0.1 µM): 1.02% | viability, T/C (second compound 0.0949 µM, first compound 0.316 µM): 1.61% | viability, T/C (second compound 0.0949 µM, first compound 1 µM): 0.79% | viability, T/C (second compound 0.0949 µM, first compound 3.16 µM): 0.68% | viability, T/C (second compound 0.0949 µM, first compound 10 µM): 0.72% | viability, T/C (second compound 0.3 µM, first compound 0.0316 µM): 1.95% | viability, T/C (second compound 0.3 µM, first compound 0.1 µM): 0.96% | viability, T/C (second compound 0.3 µM, first compound 0.316 µM): 1.47% | viability, T/C (second compound 0.3 µM, first compound 1 µM): 0.52% | viability, T/C (second compound 0.3 µM, first compound 3.16 µM): 0.57% | viability, T/C (second compound 0.3 µM, first compound 10 µM): 0.59%
